# Like-named read-outs stand apart in the source and are kept apart here.
# What was measured:
# P. falciparum 3D7-GFP = assay: Screening at fixed concentration against unsynchronized asexual blood stages, flow cytometry (GFP); format: cell-based; settings: Plasmodium falciparum, read-out: Inhibition (%) 10 μΜ
# Method: In order to assess the antiplasmodial activity of the compounds, a screening with fixed concentrations at 10 μM was performed against unsynchronized cultures of the asexual blood stages of P. falciparum 3D7HT-GFP (hereafter referred to as 3D7-GFP). […] The JR intermediates were also evaluated in this assay in order to assess the relevance of the spiroacridine scaffold.
# (§1) Firstly, to prepare the samples for in vitro assays, each compound was dissolved in DMSO (Sigma-Aldrich®, Merck, Darmstadt, Germany), obtaining a solution of 5 mM, from which two other solutions, at 100 μM and 10 μΜ were prepared through dilution with RPMI-1640 medium (Invitrogen™, Carlsbad, CA, USA), supplemented with AlbuMAXII (Invitrogen™, Carlsbad, CA, USA). In parallel, the parasite cultures used in the in vitro assays include the following P. falciparum strains: 3D7-GFP (MRA-1029, MR4, ATCC®, Manassas, VA, USA, chloroquine-sensitive, expressing Green Fluorescent Protein), Dd2 (MRA-150, ATCC®, Manassas, Virgínia, chloroquine-resistant), and IPC5202 (MRA-1240, ATCC®, Manassas, VA, USA, artemisinin-resistant). These cultures were obtained through BEI Resources, NIAID, NIH (MR4, ATCC®, Manassas, VA, USA), contributed by Andrew M. Talman, Robert E. Sinden, David Walliker, and Didier Ménard. The parasites were cultivated with 5% hematocrit at 37 °C and an atmosphere enriched with 5% of CO2 [54].
# Then, to assess the antiplasmodial activity of the compounds, a screening assay was initially performed against the P. falciparum 3D7-GFP strain. For this, unsynchronized cultures were incubated in a 96-well flat-bottom plate at 1.2% hematocrit and 1.0% parasitemia, in the presence and absence of 1 μM and 10 μM of each compound, for 72 h at 37 °C and 5% CO2. […] Parasite growth was determined by flow cytometry (CytoFLEX, Beckman Coulter Life Sciences, Indianapolis, IN, USA) with a 96-well plate reader, using Fl-1 with an excitation wavelength of 488 nm for GFP detection. The flow cytometry data were analyzed with FlowJo v10 software (FlowJo LLC, Ashland, OR, USA) to calculate the percentage inhibition of compounds.
# P. falciparum 3D7 = settings: read-out: potency against P. falciparum 3D7; cited from earlier work
# [1] = test system: P. falciparum 3D7-GFP (chloroquine-sensitive); assay: IC50 determination against asexual blood stages, flow cytometry (GFP); format: cell-based; settings: Plasmodium falciparum, 3D7, 72 h, read-out: IC50 (μM) 3D7-GFP
# Method: as §1, with “In parallel, the parasite cultures used in the in vitro assays include the following P. falciparum strains: 3D7-GFP (MRA-1029, MR4, ATCC®, Manassas, VA, USA, chloroquine-sensitive, expressing Green Fluorescent Protein), Dd2 (MRA-150, ATCC®, Manassas, Virgínia, chloroquine-resistant), and IPC5202 (MRA-1240, ATCC®, Manassas, VA, USA, artemisinin-resistant).” left out
# (§2) In order to accomplish this, unsynchronized cultures of 3D7-GFP, Dd2, and MRA-1240 were incubated at 1.2% hematocrit and 1.0% parasitemia with serial three-fold dilutions of the compounds, ranging from 10,000 nM to 0.17 nM, in 96-well flat-bottom plates for 72 h at 37 °C and 5% CO2. Parasite growth was quantified by flow cytometry (CytoFLEX, Beckman Coulter Life Sciences, Indianapolis, IN, USA) using GFP detection in a 96-well plate reader (Fl-1 channel) for the 3D7-GFP strain. The others (Dd2 and MRA-1240) were stained with SYBR Green I (20×), which is also detected at 488 nm. Data analysis was performed with FlowJo v10 software (FlowJo LLC, Ashland, OR, USA), and the half-maximal inhibitory concentrations (IC50) were calculated using GraphPad Prism 5 (trial version), with mean IC50 values obtained from at least two independent experiments, each conducted in triplicate.
# (§3) All statistical analyses and graphical representations were performed using the GraphPad Prism 8.0 software package. Dose–response curves were generated by fitting the data to a nonlinear regression model [log(inhibitor) vs. response—variable slope]. […] The IC50 values were obtained from the fitted curves. Each experiment was carried out in triplicate and repeated independently, and results were expressed as mean ± standard deviation.
# [2] = test system: P. falciparum Dd2 (chloroquine-resistant); assay: microbe, parasite or virus in culture; format: cell-based; settings: Plasmodium falciparum, DD2, 72 h, read-out: IC50 (μM) Dd2
# Method: as §1, with “In parallel, the parasite cultures used in the in vitro assays include the following P. falciparum strains: 3D7-GFP (MRA-1029, MR4, ATCC®, Manassas, VA, USA, chloroquine-sensitive, expressing Green Fluorescent Protein), Dd2 (MRA-150, ATCC®, Manassas, Virgínia, chloroquine-resistant), and IPC5202 (MRA-1240, ATCC®, Manassas, VA, USA, artemisinin-resistant).” left out
# as §2, §3
# [3] = test system: P. falciparum MRA-1240 (artemisinin-resistant); assay: microbe, parasite or virus in culture; format: cell-based; settings: Plasmodium falciparum, 72 h, read-out: IC50 (μM) MRA-1240
# Method: as §1, with “In parallel, the parasite cultures used in the in vitro assays include the following P. falciparum strains: 3D7-GFP (MRA-1029, MR4, ATCC®, Manassas, VA, USA, chloroquine-sensitive, expressing Green Fluorescent Protein), Dd2 (MRA-150, ATCC®, Manassas, Virgínia, chloroquine-resistant), and IPC5202 (MRA-1240, ATCC®, Manassas, VA, USA, artemisinin-resistant).” left out
# as §2, §3
# [4] = test system: monkey kidney cells (Vero E6); assay: Cytotoxicity, MTT assay; format: cell-based; settings: for IC50: Primates, read-out: IC50 (μM) Vero E6
# Method: In the following stages, to assess the selectivity of compounds against P. falciparum over mammalian cells, the cytotoxicity against monkey kidney cells (Vero E6) was determined through MTT assay after 72h of treatment. Also, the selectivity index (SI) of compounds was calculated by the ratio between a compound’s cytotoxicity against Vero E6 cells and its antiplasmodial activity (SI = Vero E6 IC50/P. falciparum IC50).
# For this, monkey kidney cells (Vero E6) were seeded at a density of 5 × 10^3 cells/mL in 96-well plates and allowed to adhere for 6 h. Vero E6 cell line was obtained from the Cell Bank of Rio de Janeiro and cultured in DMEM media (Dulbecco’s Modified Eagle Medium) plus 10% inactivated fetal bovine serum (FBS) and 1% penicillin–streptomycin. Treatments were performed by adding 100 μL of medium solutions with test drugs, resulting in concentrations ranging from 12.5 to 100 µM (DMSO 1%, v/v). After 72 h of incubation at 37 °C and under 5% of CO2, the cultures were incubated with MTT at 0.5 mg/mL for 2 h. After this, the formazan crystals were dried in room temperature and dissolved in DMSO. Cell viability was determined by measuring the absorbance at 570 nm (Absorbance microplate reader EL800, BioTek, Winooski, VT, USA), and control wells containing DMSO at 1% were considered as 100% cell viability.
# P. falciparum W2 = test system: P. falciparum W2; design: method as in PMID 30366283; settings: read-out: IC50 against P. falciparum W2; cited from earlier work
# erythrocytes = test system: erythrocytes; design: method as in PMID 40572185; settings: no cytotoxicity against erythrocytes up to this concentration; cited from earlier work
# mice = test system: mice; design: method as in PMID 31861795; settings: acute toxicity, OECD guidelines; cited from earlier work
# [5] = Vero C1008, 72 h, MTT, 12.5 to 100 µM
compound,measurement,setting,value
"N#CCC(=O)N/N=C/c1ccc(Cl)cc1 [JR-06, (E)-N’-(4-chlorobenzylidene)-2-cyanoacetohydrazide]",inhibition at 10 µM,"P. falciparum 3D7-GFP; 3D7, 72 h",12.4 ± 1%
N#CCC(=O)N/N=C/c1c[nH]c2ccccc12 [JR-19],inhibition at 10 µM,"P. falciparum 3D7-GFP; 3D7, 72 h",16.8 ± 5%
CC(=O)N(O)CCCCCNC(=O)CCC(=O)N(O)CCCCCNC(=O)CCC(=O)N(O)CCCCCN [deferoxamine],IC50,P. falciparum 3D7,27.6 µM
"CCN(CC)CCCC(C)Nc1ccnc2cc(Cl)ccc12 (stereo not drawn) [CQ, chloroquine, reference compound]",inhibition at 10 µM,P. falciparum 3D7-GFP; 72 h,94.34 ± 0.54%
same,IC50,[1],0.02 ± 0.01 µM
same,IC50,[2],0.26 ± 0.09 µM
same,IC50,[3],0.19 ± 0.07 µM
same,IC50,"[4]; Vero C1008, 72 h",> 100 µM
COc1cc(NC(C)CCCN)c2ncccc2c1 (stereo not drawn) [primaquine],IC50,P. falciparum W2,1700 nM
same,IC50,P. falciparum 3D7,9.4 µM
"COc1ccc(/C=N/NC(=O)CC#N)cc1 [JR-11, (E)-2-cyano-N’-(4-methoxybenzylidene)acetohydrazide]",inhibition at 10 µM,"P. falciparum 3D7-GFP; 3D7, 72 h",13.4 ± 1.4%
N#CC1=CC2(c3ccccc3Nc3ccccc32)N(/N=C/c2ccc(Cl)cc2)C1=O [AMTAC-06],inhibition at 10 µM,"P. falciparum 3D7-GFP; 3D7, 72 h",62.4 ± 8.9%
"N#CC1=CC2(c3ccccc3Nc3ccccc32)N(/N=C/c2c[nH]c3ccccc23)C1=O [AMTAC-22, (E)-1′-(((1H-indol-3-yl)methylene)amino)-5′-oxo-1′,5′-dihydro-10H-spiro[acridine-9,2′-pyrrole]-4′-carbonitrile]",IC50,[1],3.01 ± 0.52 µM
same,IC50,[2],2.34 ± 0.11 µM
same,IC50,[3],2.88 ± 0.3 µM
same,IC50,[4]; [5],> 100 µM
same,reduction in cell viability,"[4]; at all concentrations evaluated (12.5–100 μM), 72 h",15–20%
N#CCC(=O)N/N=C/c1ccnc2ccccc12 [JR-18],inhibition at 10 µM,"P. falciparum 3D7-GFP; 3D7, 72 h",14.7 ± 7.2%
"COc1cc(/C=N/NC(=O)CC#N)cc(OC)c1OC [JR-10, (E)-2-cyano-N’-(3,4,5-trimethoxybenzylidene)acetohydrazide]",inhibition at 10 µM,"P. falciparum 3D7-GFP; 3D7, 72 h",12.6 ± 1.4%
COc1cc(C)c2c(Oc3cccc(C(F)(F)F)c3)c(OC)cc(NC(C)CCCN)c2n1 (stereo not drawn) [tafenoquine],IC50,P. falciparum 3D7,1.7 µM
"N#CC1=CC2(c3ccccc3Nc3ccccc32)N(/N=C/c2ccnc3ccccc23)C1=O [AMTAC-21, (E)-5′-oxo-1′-((quinolin-4-ylmethylene)amino)-1′,5′-dihydro-10H-spiro[acridine-9,2′-pyrrole]-4′-carbonitrile]",IC50,[1],3.78 ± 0.18 µM
same,IC50,[2],3.99 ± 0.23 µM
same,IC50,[3],4.07 ± 0.27 µM
same,IC50,[4]; [5],> 100 µM
N#CC1=CC2(c3ccccc3Nc3ccccc32)N(/N=C/c2ccccc2)C1=O [AMTAC-01],IC50,[1],2.11 ± 0.6 µM
same,IC50,[2],1.37 ± 0.46 µM
same,IC50,[3],1.66 ± 0.08 µM
same,IC50,[4]; [5],> 100 µM
same,half-maximal hemolytic concentration (HC50),erythrocytes,> 400 µM
COc1ccc(/C=N/N2C(=O)C(C#N)=CC23c2ccccc2Nc2ccccc23)cc1 [AMTAC-02],IC50,[1],3.19 ± 0.49 µM
same,IC50,[2],3.12 ± 0.34 µM
same,IC50,[3],4.01 ± 0.17 µM
same,IC50,[4]; [5],> 100 µM
same,half-maximal hemolytic concentration (HC50),erythrocytes,> 400 µM
"COc1cc(/C=N/NC(=O)CC#N)cc(OC)c1O [JR-28, (E)-2-cyano-N’-(4-hydroxy-3,5-dimethoxybenzylidene)acetohydrazide]",inhibition at 10 µM,"P. falciparum 3D7-GFP; 3D7, 72 h",5.5 ± 11.5%
"COc1cc(/C=N/N2C(=O)C(C#N)=CC23c2ccccc2Nc2ccccc23)cc(OC)c1O [AMTAC-24, (E)-1′-((4-hydroxy-3,5-dimethoxybenzylidene)amino)-5′-oxo-1′,5′-dihydro-10H-spiro[acridine-9,2′-pyrrole]-4′-carbonitrile]",inhibition at 10 µM,"P. falciparum 3D7-GFP; 3D7, 72 h",66.8 ± 10.8%
COc1cc(/C=N/N2C(=O)C(C#N)=CC23c2ccccc2Nc2ccccc23)cc(OC)c1OC [AMTAC-17],IC50,[1],3.28 ± 0.49 µM
same,IC50,[2],3.29 ± 0.38 µM
same,IC50,[3],4.09 ± 0.05 µM
same,IC50,[4]; [5],> 100 µM
same,estimated Median Lethal Dose (LD50),mice,greater than 5000 mg/kg
N#CCC(=O)N/N=C/c1ccccc1 [JR-09],inhibition at 10 µM,"P. falciparum 3D7-GFP; 3D7, 72 h",14.8 ± 0.4%

# Source: article PMC12730060, “Design, Synthesis, and Antimalarial Evaluation of New Spiroacridine Derivatives” (Antibiotics, 2025)
